Experimental data reported in publication PMC8073686, “Characterization of Subtype Selective Cannabinoid CB2 Receptor Agonists as Potential Anti-Inflammatory Agents” (Pharmaceuticals, 2021).

Tests used:
CB1 receptor = target: T1, CB1 receptor (Homo sapiens, UniProt P21554); assay: Competitive [3H]CP55,940 radioligand binding, membrane from CB1 expressing HEK293 cells; conditions: for Ki CB1 (CP55,940): competition with [3H]CP55,940, N.B. = no specific binding detected up to 10 μM of test compounds; for CB1 receptor binding: not bound up to: test compound 1 nM to 10 μM
T1 construct: expressed in transfected cells; host or cells: HEK293T cells (called 'HEK293 cells' in Results), calcium phosphate transfection, membrane preparation
Description: To evaluate binding affinity of ABK5 analogs that have a difference in the position of substituents in the N-phenyl ring (Figure 1), we performed competitive radiolabeled ligand binding assays using cell membrane from HEK293T cells transfected with human CB2 receptors. […] ABK5-1, ABK5-2, and ABK5-6 dose-dependently competed with [^3H]CP55,940 and decreased the specific binding of the radiolabeled agonist, which reflects the binding of test compounds to CB2. […] Therefore, ABK5-5 was not considered for further evaluation in this study. […] We also examined CB2 selectivity (versus CB1) of the three compounds by performing similar binding assays using membrane from CB1 expressing HEK293 cells instead of CB2 expressing cells. […] Therefore, ABK5-1 and 5-2 maintained the CB2 subtype selectivity of ABK5.
(§1) In the experiment, 1 × 10^6 HEK293T cells were seeded in a 10-cm cell culture dish and cultured for 24 h. Cells were transfected with CB1 or CB2 using the calcium phosphate method. Approximately one day after transfection, cells were harvested and centrifuged at 4 °C for 5 min at 500× g. The pellet was washed with phosphate buffered saline (PBS) twice and resuspended in PBS containing 1% protease-inhibitor cocktail (Sigma-Aldrich, St. Louis, MO, USA) consisting of 104 mM 4-(2-aminoethyl) benzene sulfonyl fluoride hydrochloride (AEBSF), 80 μM apronitin, 4 mM bestatin, 1.64 mM E-64, 2 mM leupeptin, 1.5 mM pepstatin A. Then the cells were subjected to nitrogen cavitation under 750 psi for 5 min using a Parr cell disruption bomb. The lysate was centrifuged at 500× g for 10 min at 4 °C and the supernatant was spun at 116,000× g for 45 min at 4 °C. The pellet, consisting of the cell membrane expressing CB1 or CB2, was resuspended in TME buffer solution (25 mM Tris-HCl, 5 mM MgCl2, and 1 mM EDTA, pH 7.4) with 7% (w/v) sucrose/TME buffer. The concentration of the membrane protein was determined by the Bradford assay (Bradford, 1976).
Membrane protein was mixed with 1 nM to 10 μM of the test compounds and 1 nM [^3H]CP55,940 (164.9 Ci/mmol; PerkinElmer life Sciences, Waltham, MA, USA), and TME buffer supplemented with 0.2% BSA was used to bring the total volume to 200 μL. [^3H]CP55,940 acts as tracer and agonists that bind the target receptor compete with [^3H]CP55,940. Samples were incubated for 1 h at 30 °C. Ten μM unlabeled CP55,940 was used to determine non-specific binding. Reactions were stopped by adding 5% BSA/TME buffer (w/v) and samples were filtered through a Brandel cell harvester using Whatman GF/C filter paper. Ultima Gold XR liquid scintillation cocktail (PerkinElmer Life Sciences, Waltham, MA, USA) was then added and vortexed. A Beckman Coulter 6500 liquid scintillation counter was used to measure the radioactivity of the samples.
Results are presented as the mean ± standard deviation (S.D.). The ligand binding assays and the GTPγS binding assays were both carried out in duplicate for three independent experiments. The Ki values in the ligand binding assay were calculated using the Prism software (GraphPad Software Inc., San Diego, CA, USA), using IC50 values obtained from non-linear regression fitted to the one-site binding model. The Cheng-Prusoff equation [48], which is used for calculation of Ki value is shown below. (1) Ki=IC50/1+L/Kd

CB2 = target: T2, CB2 (Homo sapiens, UniProt P34972); assay: [35S]GTPγS binding assay (G-protein coupling), CB2 containing HEK293T cell membrane; assay type: biochemical; conditions: stimulation of [35S]GTPγS binding; mean ± S.D.
T2 construct: expressed in transfected cells; host or cells: HEK293T cells, calcium phosphate transfection, membrane preparation
Method: We also examined if the compounds can induce G-protein coupling and act as CB2 agonists. Three compounds, ABK5-1, ABK5-2, and ABK5-6, were subjected to [^35S]GTPγS binding assays. Increasing concentrations, from 1 nM to 10 μM of the test compounds, were incubated with CB2 containing HEK293T cell membrane and [^35S]GTPγS, which binds to Gi/o in the membrane upon CB2 activation and G-protein coupling. All three compounds stimulated dose-dependent increases of specific [^35S]GTPγS binding (Figure 3).
as §1
GTPγS binding assay buffer ([…], pH 7.4, 3 mM MgCl2, 0.2 mM EGTA, and 100 mM NaCl) membrane protein, 1 nM to 10 μM of the test compounds, 0.1 nM [^35S] GTPγS (1250 Ci/mmol; PerkinElmer Life Sciences, Waltham, MA, USA), 0.1% fatty acid free BSA (w/v), 10 μM guanosine diphosphate (GDP) and GTPγS was incubated for 1 h at 30 °C with shaking. […] A Beckman Coulter 6500 liquid scintillation counter was used to measure the radioactivity of the samples. […]

T1 sequence (P21554 whole entry): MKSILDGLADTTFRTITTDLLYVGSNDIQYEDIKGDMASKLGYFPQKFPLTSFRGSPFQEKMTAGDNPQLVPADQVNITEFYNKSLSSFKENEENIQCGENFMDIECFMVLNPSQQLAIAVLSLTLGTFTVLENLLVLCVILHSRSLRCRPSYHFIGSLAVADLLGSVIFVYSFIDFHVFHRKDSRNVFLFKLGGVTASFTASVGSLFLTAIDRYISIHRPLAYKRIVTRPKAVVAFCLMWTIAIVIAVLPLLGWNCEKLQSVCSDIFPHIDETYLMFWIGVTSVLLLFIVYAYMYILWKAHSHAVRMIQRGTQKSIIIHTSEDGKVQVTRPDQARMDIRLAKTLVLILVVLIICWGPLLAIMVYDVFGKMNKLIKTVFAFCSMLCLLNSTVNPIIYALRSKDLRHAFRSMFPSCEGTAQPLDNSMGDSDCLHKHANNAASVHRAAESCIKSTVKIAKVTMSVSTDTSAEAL
T2 sequence (P34972 whole entry): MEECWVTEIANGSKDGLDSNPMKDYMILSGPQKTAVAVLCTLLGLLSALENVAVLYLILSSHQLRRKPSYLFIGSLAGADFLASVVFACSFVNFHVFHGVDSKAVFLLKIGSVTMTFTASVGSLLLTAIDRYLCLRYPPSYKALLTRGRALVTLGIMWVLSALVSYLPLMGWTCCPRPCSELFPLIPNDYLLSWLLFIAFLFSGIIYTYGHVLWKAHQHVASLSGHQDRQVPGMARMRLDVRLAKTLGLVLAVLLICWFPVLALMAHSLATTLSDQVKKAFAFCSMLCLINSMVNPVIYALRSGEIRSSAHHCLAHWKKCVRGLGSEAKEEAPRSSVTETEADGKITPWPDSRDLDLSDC

| Compound | Ki CB1 (CP55,940) (CB1 receptor) | CB1 receptor binding: not bound up to (CB1 receptor) [µM] | EC50 (CB2) [nM] |
| --- | --- | --- | --- |
| CCOC(=O)c1ccccc1NC(=O)CN(c1c(C)cccc1C)S(=O)(=O)c1ccccc1 [ABK5-2] | N.B. ^c | > 10 | 24 ± 25 |
| CCOC(=O)c1ccccc1NC(=O)CN(c1ccc(C)cc1C)S(=O)(=O)c1ccccc1 [ABK5-1] | N.B. ^c | > 10 | 11 ± 14 |
